Source: ChEMBL document CHEMBL1221313, “Synthesis of pyrrolomorphinan derivatives as kappa opioid agonists” (Bioorg Med Chem Lett, 2010)

Tests used:
[1] = target: Kappa-type opioid receptor (Cavia porcellus, UniProt P41144); assay: Displacement of [3H]U69593 from kappa opioid receptor in guinea pig cerebellum; format: tissue-based
Mu-type opioid receptor = Mu-type opioid receptor (Cavia porcellus, UniProt P97266); assay: Displacement of [3H]DAMGO from mu opioid receptor in guinea pig forebrain
[2] = Displacement of [3H]NTI from delta opioid receptor in guinea pig forebrain; parameters: species or system Cavia porcellus
[3] = target: Opioid receptor (mu and kappa) (Cavia porcellus) (UniProt P41144+P97266); assay: Selectivity ratio of Ki for mu opioid receptor in guinea pig forebrain to Ki for kappa opioid receptor in guinea pig cerebellum; format: tissue-based
Cavia porcellus = organism: Cavia porcellus; assay: Selectivity ratio of Ki for delta opioid receptor in guinea pig forebrain to Ki for kappa opioid receptor in guinea pig cerebellum; format: tissue-based
Mus musculus = assay: Antinociceptive activity in sc dosed mouse assessed as effect on acetic acid-induced writhing; format: functional

Chain of Opioid receptor (mu and kappa) (Cavia porcellus) (P41144 whole entry, looked up): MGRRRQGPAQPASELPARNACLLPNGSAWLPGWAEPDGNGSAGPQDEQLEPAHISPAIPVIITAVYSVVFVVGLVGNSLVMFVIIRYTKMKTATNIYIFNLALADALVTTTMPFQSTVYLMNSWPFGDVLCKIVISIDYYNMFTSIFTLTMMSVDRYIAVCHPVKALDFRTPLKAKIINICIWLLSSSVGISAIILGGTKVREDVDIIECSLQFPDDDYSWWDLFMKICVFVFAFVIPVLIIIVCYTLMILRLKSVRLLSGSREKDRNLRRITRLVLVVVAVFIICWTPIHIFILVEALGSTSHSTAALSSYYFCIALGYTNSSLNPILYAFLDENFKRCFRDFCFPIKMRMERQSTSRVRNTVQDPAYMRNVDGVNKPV
Chain of Opioid receptor (mu and kappa) (Cavia porcellus) (P97266 whole entry, looked up): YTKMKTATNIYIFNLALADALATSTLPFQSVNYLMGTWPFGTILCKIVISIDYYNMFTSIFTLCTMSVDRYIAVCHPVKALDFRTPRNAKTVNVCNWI
Chain of Kappa-type opioid receptor (P41144 whole entry): as the sequence (P41144 whole entry, looked up) above
Chain of Mu-type opioid receptor (P97266 whole entry): as the sequence (P97266 whole entry, looked up) above

SMILES	Ki [1] [nM]	Ki (Mu-type opioid receptor) [nM]	Ki [2] [nM]	Ratio Ki [3]	Ratio Ki (Cavia porcellus)	IC50 [2] [nM]	Activity (Mus musculus)	ED50 (Mus musculus) [mg/kg]
Cn1c(CCC(=O)CCc2ccccc2)cc2c1[C@@H]1Oc3c(O)ccc4c3[C@@]13CCN(CC1CC1)[C@H](C4)[C@]3(O)C2	0.342	0.548	1.59	1.6	4.6	–	–	–
Cn1c(/C=C/C(=O)Cc2ccccc2)cc2c1[C@@H]1Oc3c(O)ccc4c3[C@@]13CCN(CC1CC1)[C@H](C4)[C@]3(O)C2	1.13	6.58	2.08	5.8	1.8	–	–	–
Cn1c(/C=C/C(=O)CCc2ccccc2)cc2c1[C@@H]1Oc3c(O)ccc4c3[C@@]13CCN(CC1CC1)[C@H](C4)[C@]3(O)C2	0.935	6.89	1.73	7.4	1.9	–	–	–
Cn1c(/C=C/c2ccccc2)cc2c1[C@@H]1Oc3c(O)ccc4c3[C@@]13CCN(CC1CC1)[C@H](C4)[C@]3(O)C2	3.79	1.76	–	0.5	–	> 1000	–	–
Cn1c(/C=C/C(=O)c2ccccc2)cc2c1[C@@H]1Oc3c(O)ccc4c3[C@@]13CCN(CC1CC1)[C@H](C4)[C@]3(O)C2	0.467	3.76	3.74	8.1	8	–	–	–
CCCCCC(=O)/C=C/c1cc2c(n1C)[C@@H]1Oc3c(O)ccc4c3[C@@]13CCN(CC1CC1)[C@H](C4)[C@]3(O)C2	1.24	15	3.55	12	2.9	–	Dose-dependent effect	5.87
Cc1occc1C(=O)/C=C/c1cc2c(n1C)[C@@H]1Oc3c(O)ccc4c3[C@@]13CCN(CC1CC1)[C@H](C4)[C@]3(O)C2	1.15	6.2	1.47	5.4	1.3	–	–	–
CCC/C=C/c1cc2c(n1C)[C@@H]1Oc3c(O)ccc4c3[C@@]13CCN(CC1CC1)[C@H](C4)[C@]3(O)C2	7.38	5.85	6.58	0.8	0.9	–	–	–
